US20200308165A1, “Compounds as Ras Inhibitors and Use Thereof” (D.E. Shaw Research, LLC, priority 2017, published 2020)
pIC50, pKd: −log10 of the molar value.

Columns and labels:
[1] = target: GDP-loaded K-Ras (Homo sapiens, UniProt P01116); assay: Thermophoresis binding assay
Method: The thermophoresis binding assay measures the changes in the movement of KRAS along a temperature gradient as a result of compound binding. In this assay, K-Ras is fluorescently labeled and the thermophoretic movement is measured by monitoring the fluorescence distribution inside a capillary. Compounds of varies concentrations were titrated and the fluorescence distribution signal was measured after 30 seconds or until the diffusion equilibrium is stable. The apparent binding affinity Kd is calculated by fitting the normalized fluorescence distribution values along the concentration axis.

[2] = target: Ras protein (Homo sapiens, UniProt P01116); assay: Nucleotide exchange rate IC50 assay (SOS1, mant-GDP), Example 18; type: biochemical
Text: The IC50 assay measures the reduction effect of a given compound on the guanine nucleotide-exchange rate of Ras protein in the presence of guanine nucleotide exchange protein SOS1, which is a Ras activator. In the assay GDP-loaded Ras is first prepared in a buffer containing the compound at certain concentration and fluorescent guanine nucleotide (mant-GDP). The guanine nucleotide exchange was initiated by the addition of the SOS1 and its rate was reflected in the rate of fluorescence change as a function of time, which was monitored by a reader. The experiment was repeated at different compound concentrations and the IC50 of the compound was defined as the compound concentration at which half of its maximal reduction effect on the guanine nucleotide exchange rate is achieved.

Chain of Ras protein (P01116 1-188 isoform P01116-2): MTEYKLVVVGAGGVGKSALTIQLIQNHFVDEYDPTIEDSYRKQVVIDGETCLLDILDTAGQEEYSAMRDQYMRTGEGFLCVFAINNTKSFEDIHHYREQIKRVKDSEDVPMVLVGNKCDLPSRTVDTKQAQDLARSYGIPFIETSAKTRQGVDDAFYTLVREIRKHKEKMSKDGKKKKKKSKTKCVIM
Chain of GDP-loaded K-Ras (P01116 1-188 isoform P01116-2): as above

Structure (SMILES) | pKd [1] | pIC50 [2]
Cc1nnc(SCc2[nH]n(-c3nc4ccccc4[nH]3)c(=O)c2C)s1 [Compound 188, 2-(1H-benzo[d]imidazol-2-yl)-4-methyl-5-(((5-methyl-1,3,4-thiadiazol-2-yl)thio)methyl)-1,2-dihydro-3H-pyrazol-3-one] | 6.28 | ~6.10
COC(=O)c1ccc2[nH]c(-n3[nH]c(CSc4nnc(C)s4)c(C)c3=O)nc2c1 [Compound 189, methyl 2-(4-methyl-3-(((5-methyl-1,3,4-thiadiazol-2-yl)thio)methyl)-5-oxo-2,5-dihydro-1H-pyrazol-1-yl)-1H-benzo[d]imidazole-5-carboxylate] | 6.38 | ~6.15
